# Assays:
# [1] = tested on: Cholesterol 7-α hydroxylase; assay: Cholesterol 7-α hydroxylase activity in liver microsomes of treated dogs; format: in vivo, beagle dogs; details: 14 Days; for Cholesterol 7a-hydroxylase: n=8
# Method: Healthy female and male beagle dogs in the age range of 8 to 10 months were used. The animals were acclimated for at least four weeks before dose administration. Four female and four male dogs per dose group (groups 2-5) were given single daily doses of LUM001 at 1, 4, 12 and 30 mg free form/kg for 13 days. Animals in the control group (group 1) were given the same number of empty capsules as the animals of group 5 to treat all dose groups the same.
# At the end of the study, animals were anesthetized, their livers removed and flash frozen and stored at −80 C. Homogenates of three gram liver tissue samples were prepared in 25 ml homogenization buffer [0.1 M potassium phosphate buffer, pH 7.2, containing 0.1 M sucrose, 50 mM KCl, 50 mM NaF, 5 mM ethylene glycol-bis((3-aminoethyl ether)-N,N,N′,N′-tetraacetic acid (EGTA), 1 mM EDTA, 3 mM dithiothreitol (DTT), and 1 mM phenylmethylsulfonyl fluoride (PMSF)]. A microsomal fraction was prepared by centrifugation at 10,000×g for ten minutes. The supernatant was subjected to centrifugation at 105,000×g for two hours. The microsomal fraction was resuspended in a 0.1 M Na tetrapyrophosphate buffer (pH 10), with 50 mM NaF, and 1 mM EDTA, and subjected to centrifugation for one hour at 105,000×g. The microsomal fraction was resuspended in the homogenization buffer, and assayed for protein content by Coomassie Protein Plus Assay reagent.
# Liver microsomes (1 mg) or 7-α-hydroxycholesterol standard solutions were preincubated for five minutes at 37° C. in a rocking water bath with 500 μl 5× buffer, 1.7 ml water, and 50 μl 0.1% (w/v) cholesterol as substrate in excess. The 5× buffer consists of 0.42 M Na2HPO4, 0.25 mM NaF, 0.08 M KH2PO4, 5 mM EDTA and 10 mM DTT. The reaction tubes were incubated at 37° C. in a rocking water bath throughout the remainder of the assay protocol, with cessation of rocking only for the period of time needed to add solutions. After the preincubation period, 250 μl of 10 mM NADPH was added and incubated for 5 minutes to allow enzymatic conversion of the cholesterol substrate to 7-α-hydroxycholesterol by endogenous 7-α-hydroxylase. The reaction was stopped by addition of 75 μl of 20% sodium cholate.
# After four minutes, 25 μl of 100 μM 20-α-hydroxycholesterol was added to each tube as an internal recovery standard. The tubes were allowed to rock briefly in the water bath to mix, then 40 μl of 25 U/ml cholesterol oxidase was added and the tubes were incubated for ten minutes to convert 7-α-hydroxycholesterol and 20-α-hydroxycholesterol to their ketone forms, 7-α-hydroxycholesten-3-one and 20-α-hydroxycholesten-3-one. After the enzymatic reactions were completed, the ketone products were isolated by four sequential extractions in 20, 10, 10 and 10 ml petroleum ether, respectively. The collected volumes were evaporated to dryness under a flow of nitrogen gas between each extraction step using a heat block set at 50° C. The final dried samples were resuspended in 125 μl mobile phase solution consisting of 70:30 acetonitrile/methanol for analysis by reversed phase HPLC. Chromatography was performed on a 4.6×250 mm Beckman Ultrosphere ODS reverse phase column in mobile phase solution. The analyte, 7-α-hydroxy-4-cholesten-3-one, is quantified by absorption at 254 nm using the internal standard 20-α-hydroxy-4-cholesten-3-one to control for extraction efficiency.
# serum bile acids = assay: Serum bile acids, ascending multiple oral doses of LUM001 in healthy adults; format: in vivo, human; details: 28 days
# Method: This Phase 1 study was a randomized, double-blind, placebo-controlled study of ascending multiple oral doses of LUM001 in healthy, adult subjects. This study was conducted at a single center. There were 13 LUM001 dosing panels: 10, 20, 60, 100, and 20 mg every morning (qAM) (2) (i.e., the regimen was tested a second time in the study), 5 mg every evening (qPM), 0.5, 1, 2.5, 5, 2.5 (2), 5 (2), and 0.5 to 5 mg qAM dose titration. Most of the dosing panels included subjects treated with matching placebo. No subject participated in more than 1 dosing panel. Subjects were randomized into the study by dosing panel, and all subjects within a dosing panel received study medication at approximately the same time each day. Safety was reviewed for each panel before subsequent panels were initiated. A total of 167 subjects were treated for 28 days, 147 with LUM001 and 20 with placebo. […]
# On Day 1 of the Treatment Period, subjects who qualified for enrollment were randomized in the order in which they were admitted to the research facility. […] The safety and tolerability of LUM001 were evaluated by physical examination, ascertainment of adverse signs and symptoms, and clinical laboratory studies. […]
# SBA were analyzed as part of the routine clinical analysis of the serum samples collected at each time point.
# plasma amylase = assay: Plasma amylase in ZDF rats, week 3; format: in vivo; details: twice daily oral gavage
SMILES,"Cholesterol 7a-hydroxylase, % change from vehicle group ([1]; 1 mg/kg/day)",Cholesterol 7a-hydroxylase ([1]; 1 mg/kg/day) [pmol/mg/min],"Cholesterol 7a-hydroxylase, % change from vehicle group ([1]; 4 mg/kg/day)",Cholesterol 7a-hydroxylase ([1]; 4 mg/kg/day) [pmol/mg/min],"Cholesterol 7a-hydroxylase, % change from vehicle group ([1]; 12 mg/kg/day)",Cholesterol 7a-hydroxylase ([1]; 12 mg/kg/day) [pmol/mg/min],"Cholesterol 7a-hydroxylase, % change from vehicle group ([1]; 30 mg/kg/day)",Cholesterol 7a-hydroxylase ([1]; 30 mg/kg/day) [pmol/mg/min],Serum bile acids (serum bile acids),Plasma amylase (plasma amylase)
CCCCC1(CCCC)CS(=O)(=O)c2ccc(N(C)C)cc2[C@@H](c2ccc(OCc3ccc(C[N+]45CCN(CC4)CC5)cc3)cc2)[C@H]1O [LUM001],(+28) %,114 ± 18,(+101) %,179 ± 22,(+219) %,284 ± 41,(+378) %,425 ± 58,significant reduction in serum bile acids,–
"CCCC[C@]1(CC)CS(=O)(=O)c2ccc(N(C)C)cc2[C@@H](c2cccc(NC(=O)N[C@@H]3O[C@H](COS(=O)(=O)[O-])[C@@H](O)[C@H](OCc4ccccc4)[C@H]3O)c2)[C@H]1O.CCO.O.[K+] [LUM002, potassium((2R,3R,4S,5R,6R)-4-benzyloxy-6-{3-[3-((3S,4R,5R)-3-butyl-7-dimethylamino-3-ethyl-4-hydroxy-1,1-dioxo-2,3,4,5-tetrahydro-1H-benzo[b]thiepin-5-yl)-phenyl]-ureido}-3,5-dihydroxy-tetrahydro-pyran-2-ylmethyl)sulphate ethanolate, hydrate]",–,–,–,–,–,–,–,–,–,Neither LUM002 nor SC-435 caused a statistically significant changes

# Source: patent US20140271734A1, “BILE ACID RECYCLING INHIBITORS FOR TREATMENT OF BARRETT'S ESOPHAGUS AND GASTROESOPHAGEAL REFLUX DISEASE” (LUMENA PHARMACEUTICALS, INC., priority 2013, published 2014)
